Reference: publication PMC11395566, “Novel Copper (II) Complexes with Fluorine-Containing Reduced Schiff Base Ligands Showing Marked Cytotoxicity in the HepG2 Cancer Cell Line” (International Journal of Molecular Sciences, 2024)
Several values for one entry are separate records, joined by “and”; a condition that tells them apart may be missing. Equal entries are not always repeated.

Tests used:
Jack bean urease = Jack bean urease (Canavalia ensiformis, UniProt P07374); settings: read-out: Urease inhibition IC50 ± SD, 15 min pre-incubation
Method: The urease inhibition activity of complexes was determined using the modified method reported by [48]. The assay mixture, containing 75 μL of Jack bean urease and 75 μL of the tested compounds with various concentrations dissolved in DMSO, was pre-incubated for 15 min on a 96-well assay. Afterwards, 75 μL of phosphate buffer at pH 6.8 (containing phenol red 0.18 mM) and urea (400 mM) were added and incubated at room temperature. We used microplate reader (560 nm) to measure the reaction time required for enough ammonium carbonate to form to raise the pH of the phosphate buffer from 6.8 to 7.7. The end-point of the reaction was determined by the color change of the phenol red indicator. Acetohydroxamic acid was used as a reference.

C. albicans CCM 8186 = assay: Antimicrobial activity, broth dilution method; format: cell-based, Candida albicans; settings: 24 h, 24 °C
Method: (§1) The antimicrobial activities of the synthesized copper (II) complexes were evaluated against E. coli CNCTC 377/79 (Gram-negative bacterium), S. aureus CNCTC Mau 29/58 (Gram-positive bacterium), and the yeast C. albicans CCM 8186. Bacterial strains were obtained from the Czech National Collection of Type Cultures (National Institute of Public Health, Prague, Czech Republic) and the yeast was purchased from the Czech Collection of Microorganisms (Masaryk University, Brno, Czech Republic). Bacteria were grown aerobically in nutrient broth (IMUNA PHARM, Šarišské Michaľany, Slovakia) and the yeast in BD Difco Sabouraud dextrose broth (Becton, Dickinson and Company, Franklin Lakes, NJ, USA) for 18 h at 37 °C or 48 h at 24 °C, respectively. Cultures were then maintained at 4 °C on appropriate solid medium: Endo agar (Oxoid Ltd., Basingstoke, UK) for E. coli, blood agar (Biomark Laboratories, Pune, India) for S. aureus, and BD Sabouraud dextrose agar (Becton, Dickinson and Company, Franklin Lakes, NJ, USA) for C. albicans. Working cultures were prepared by the incubation of a single colony of each microorganism in NB (bacteria) or SDB (yeast) for 18 h at 37 °C or 48 h at 24 °C, respectively. A microbial suspension was prepared in saline solution (0.85% NaCl) according to McFarland standard No 0.5 using a Lambda 35 UV/VIS Spectrophotometer (PerkinElmer Inc., Shelton, CT, USA) to obtain a turbidity (concentration) of ca 1.5 × 10^8 cfu/cm^3. After the dilution in the appropriate liquid medium (NB for bacteria and SDB for yeast), a working turbidity of 1.5 × 10^7 cfu/cm^3 was prepared.
(§2) Antimicrobial activity was determined using the broth dilution method as described in [7]. Stock solutions with initial concentrations of approx. 45 mM for ligands and 27 mM for copper complexes were prepared in DMSO immediately before use. For comparison, ciprofloxacine was used as a standard compound. Working test ligands and copper complexes were prepared by the two-fold serial dilution of stock solutions in sterile doubly concentrated NB or SDB to a final volume 100 mm^3 within the 96-well microplates. Freshly prepared inoculum (5 mm^3) of the tested microorganism was added to each appropriate well (bacteria into the plates with NB, C. albicans into the plates with SDB). The final turbidity of each microorganism in each well was ca 7.5 × 10^5 cfu/cm^3. […] Each concentration was assayed in triplicate. […]

E. coli CNCTC 377/79 = assay: Antimicrobial activity, broth dilution method; format: cell-based, Escherichia coli; settings: 24 h, 37 °C
Method: as §1, §2

[1] = test system: HepG2 hepatocellular carcinoma cells; assay: Cytotoxicity, MTT assay; format: cell-based, human; settings: for IC50: HepG2, 24 h incubation, MTT
Method: The cytotoxic activity of the compounds L11–L14 and CuL11–CuL14 was evaluated in hepatocellular carcinoma HepG2 cells using the MTT assay. This colorimetric assay measures the reduction of the yellow tetrazolium salt 3-(4,5-dimethylthiazol-2-yl)-2,5-diphenyltetrazolium bromide (MTT) to purple formazan crystals by metabolically active cells.
HepG2 cells were seeded in 96-well plates at 70% confluency and pre-cultivated for 24 h before experiment in RPMI 1640 medium (Biosera, Cholet, France) with 10% fetal bovine serum, 1000 U·mL^−1 penicillin, and […] streptomycin, at 37 °C, 5% CO2 (maximum passage number 23).
HepG2 cells were incubated for 24 h with different concentrations (2–250 µM) of the tested compounds. The stock solutions of the compounds were freshly prepared in DMSO (Sigma-Aldrich, Burlington, MA, USA). Cells treated only with the RPMI 1640 medium served as a negative control, medium and DMSO served as a solvent control, and cells treated with cisplatin solution (Accord Healthcare, Harrow, UK) (2–250 µM) served as a positive control. After treatment, HepG2 cells were incubated for 4 h with MTT (Sigma Aldrich) solution (1mg/mL in PBS and complete RPMI medium). Then, the MTT solution was removed, and the formazan crystals were dissolved in DMSO for 30 min. The absorbance intensity was measured using an Epoch Spectrophotometer (BioTek, Winooski, VT, USA) at 570 nm. The experiments were performed in triplicate and cell cytotoxicity was expressed as a percentage relative to the untreated cells. Unexposed cells were used as a control and considered as having 100% cell viability. The viability of cells was calculated using the following formula:Viable cells (%) = A (treated cells)/A (control cells) × 100
The IC50 values were calculated using a four-parameter logistic regression model.

calf thymus DNA (ct-DNA) = assay: Quenching of the fluorescence of EB-DNA adduct (ethidium bromide displacement); format: binding; settings: for EB-DNA dynamic quenching constant Ksv / EB-DNA fluorescence quenching rate constant kq: Stern–Volmer equation; for ΔI/I0, quenching of EB-DNA fluorescence: complex 0 to 2 × 10^−4 M
Method: A stock solution of ct-DNA was prepared by dissolving 6 mg of ct-DNA in 5 mL of citrate buffer. The ability of the compounds to displace EB from its EB-DNA conjugate was investigated by fluorescence emission spectroscopy. The EB-DNA conjugate was prepared by adding 20 µM EB and 26 µM ct-DNA to citrate buffer. The measurements were performed by the gradual addition of the complex solution in DMSO (1 mM) to the EB-DNA conjugate solution and observing the changes in the fluorescence spectra. The spectra were recorded in the range of 550–700 nm and the excitation wavelength was set to 515 nm. The Stern–Volmer constant KSV was used to evaluate the quenching efficiency of the complexes according to the Stern–Volmer equation (Equation (1)).

[2] = test system: S. aureus CNCTC Mau 29/58; assay: Antimicrobial activity, broth dilution method; format: cell-based, Staphylococcus aureus; settings: 24 h, 37 °C
Method: as §1, §2

[3] = test system: T1, bovine serum albumin (BSA); assay: Interaction with BSA by quenching of tryptophane fluorescence; format: binding; settings: for BSA binding constant K: Scatchard equation; for BSA fluorescence quenching rate constant kq / BSA fluorescence dynamic quenching constant Ksv: Stern–Volmer equation, 30 µM BSA in citrate buffer; for BSA fluorescence dynamic quenching constant Ksv: emission 336 nm
T1 construct: Bovine serum albumin (BSA) was chosen over human serum albumin (HSA) as the model protein target; purchased Sigma-Aldrich
Method: The interaction of all prepared copper complexes with BSA was studied by quenching the BSA fluorescence. BSA was dissolved in citrate buffer at the initial concentration of 30 µM. The quenching of the emission intensity of BSA tryptophane residues at 336 nm was monitored using the tested complexes (1 mM solution in DMSO) as quenchers with gradually increasing concentrations. The fluorescence emission spectra were recorded in the range of 300–420 nm. The wavelength of the excitation radiation was 280 nm. Measured data were used to study the interaction of a quencher with serum albumins using the Stern–Volmer (Equation (1)) and Scatchard (Equation (2)) equations, obtaining the Stern–Volmer constant KSV (M^−1), BSA quenching constant kq (M^−1 s^−1), binding constants KBSA (M^−1), and values of the number of binding sites n on albumin [45]. (1) I0/I=1+kqτ0 [Q]=1+KSV [Q] (2) ΔI/I0/[Q]=nKBSA−KBSAΔI/I0 where I0 = initial tryptophane fluorescence intensity of BSA, I = tryptophane fluorescence intensity of BSA after the addition of the complex, kq = quenching rate constant of BSA, KSV = dynamic quenching constant, τ0 = the average lifetime of BSA without the quencher, and [Q] = concentration of the quencher. KBSA is the bovine serum albumin binding constant and n is the number of binding sides per albumin.

Chain of Jack bean urease (P07374 whole entry, looked up): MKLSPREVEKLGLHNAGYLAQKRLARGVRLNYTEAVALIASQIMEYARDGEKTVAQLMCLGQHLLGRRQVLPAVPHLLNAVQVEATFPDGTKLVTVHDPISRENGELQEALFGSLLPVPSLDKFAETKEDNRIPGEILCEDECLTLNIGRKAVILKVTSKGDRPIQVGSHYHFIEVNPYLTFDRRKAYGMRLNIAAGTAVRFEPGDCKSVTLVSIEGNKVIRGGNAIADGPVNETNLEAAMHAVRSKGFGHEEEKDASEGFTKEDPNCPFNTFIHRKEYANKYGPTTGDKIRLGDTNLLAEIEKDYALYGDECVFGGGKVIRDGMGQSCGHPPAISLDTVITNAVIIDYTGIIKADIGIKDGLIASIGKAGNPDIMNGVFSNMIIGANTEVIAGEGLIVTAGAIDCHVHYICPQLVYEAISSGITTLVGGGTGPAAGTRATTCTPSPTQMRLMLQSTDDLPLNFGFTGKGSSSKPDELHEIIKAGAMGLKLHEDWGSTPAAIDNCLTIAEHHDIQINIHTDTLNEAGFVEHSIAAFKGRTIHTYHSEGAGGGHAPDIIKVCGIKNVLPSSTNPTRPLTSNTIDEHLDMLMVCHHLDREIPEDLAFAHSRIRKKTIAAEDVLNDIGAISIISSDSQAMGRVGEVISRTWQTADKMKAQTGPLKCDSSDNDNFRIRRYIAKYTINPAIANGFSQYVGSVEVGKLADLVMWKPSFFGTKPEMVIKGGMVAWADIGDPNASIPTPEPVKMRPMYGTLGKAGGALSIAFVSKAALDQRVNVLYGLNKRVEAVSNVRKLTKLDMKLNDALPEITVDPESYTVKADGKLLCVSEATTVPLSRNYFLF

Molecule	IC50 (Jack bean urease) [µM]	MIC C. albicans (C. albicans CCM 8186) [µM]	MIC E. coli (E. coli CNCTC 377/79) [µM]	IC50 [1] [µM]	EB-DNA dynamic quenching constant Ksv (calf thymus DNA (ct-DNA))	EB-DNA fluorescence quenching rate constant kq (calf thymus DNA (ct-DNA))	ΔI/I0, quenching of EB-DNA fluorescence (calf thymus DNA (ct-DNA)) [%]	MIC S. aureus [2] [µM]	BSA binding constant K [3]	BSA fluorescence quenching rate constant kq [3]	BSA fluorescence dynamic quenching constant Ksv [3]	cell survival ([1]; HepG2, at a 50 µM concentration) [%]	EB-DNA fluorescence quenching constant (kq) (calf thymus DNA (ct-DNA)) [M⁻¹ s⁻¹]
CC(=O)NO [acetohydroxamic acid]	185												
Dichloro[(±)-trans-N,N′-bis-(3,5-bis-trifluoromethylbenzyl)-cyclohexane-1,2-diamine]copper (II) [Cu-L14]		1705.6	213.2	189 ± 7.1	3.50 (±0.09) M^−1 × 10^3	1.52 (±0.04) M^−1 s^−1 × 10^11	60.7	213.2	5.13 (±0.50) × 10^3 M^−1	6.39 (±0.19) × 10^11 M^−1s^−1	6.39 (±0.19) × 10^3 M^−1		
Dichloro[(±)-trans-N,N′-bis-(4-trifluoromethylbenzyl)-cyclohexane-1,2-diamine]copper (II) [Cu-L12]		855.3	26.7	28.7 ± 2	3.58 (±0.09) M^−1 × 10^3	1.56 (±0.04) M^−1 s^−1 × 10^11	59.7	26.7	8.59 (±0.64) × 10^3 M^−1	5.62 (±0.20) × 10^11 M^−1s^−1	5.62 (±0.20) × 10^3 M^−1	9.40	
Dichloro[(±)-trans-N,N′-bis-(3,5-difluorobenzyl)-cyclohexane-1,2-diamine]copper (II) [Cu-L13]		1698.1	212.3	64.4 ± 3.2	3.51 (±0.08) M^−1 × 10^3	1.53 (±0.03) M^−1 s^−1 × 10^11	60.3	424.5	4.70 (±0.32) × 10^3 M^−1	8.46 × 10^11 M^−1s^−1 and 8.46 (±0.26) × 10^11 M^−1s^−1	8.46 (±0.26) × 10^3 M^−1		
Dichloro[(±)-trans-N,N′-bis-(4-fluorobenzyl)-cyclohexane-1,2-diamine]copper (II) [Cu-L11]		1738.1	217.3	61.3 ± 3.4	3.40 (±0.08) M^−1 × 10^3	1.48 (±0.04) M^−1 s^−1 × 10^11	61.3	217.3	5.99 (±0.44) × 10^3 M^−1	3.88e+11 M⁻¹ s⁻¹	3.90 (±0.08) × 10^3 M^−1		1.48e+11
N.N.[Cl][Pt][Cl] [cisplatin, reference compound]				337 ± 6.7									
